Assay results published in patent publication US10980889B1 (Revolution Medicines, Inc., priority 2018, dated 2021).

Legend:
P-P70S6K (T389) = assay: Cell based AlphaLISA assay, inhibition of P-P70S6K (T389) in MDA-MB-468 cells (mTORC1 substrate); conditions: Homo sapiens, 4 h, AlphaLisa, two to four hours at 37° C., read-out: pIC50 for Inhibition of mTORC1 and mTORC2 Substrate Phosphorylation p-P70S6K-(T389) (converted)
Method in brief: (§1)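 In MDA-MB-468 cells, phosphorylation of 4EBP1 (Thr37/46), P70S6K (Thr389) and AKT (Ser473) was measured after incubation with inhibitor by AlphaLISA SureFire Ultra on cell lysates, in duplicate. IC50 values came from control-normalized concentration-response regression.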

P-Akt (S473) = assay: Cell based AlphaLISA assay, inhibition of P-Akt (S473) in MDA-MB-468 cells (mTORC2 substrate); conditions: Homo sapiens, 4 h, AlphaLisa, two to four hours at 37° C., read-out: pIC50 for Inhibition of mTORC1 and mTORC2 Substrate Phosphorylation p-AKT1/2/3-(S473) (converted)
Method in brief: as §1

P-4E-BP1 (T37/46) = assay: Cell based AlphaLISA assay, inhibition of P-4E-BP1 (T37/46) in MDA-MB-468 cells (mTORC1 substrate); conditions: Homo sapiens, 4 h, AlphaLisa, two to four hours at 37° C., read-out: pIC50 for Inhibition of mTORC1 and mTORC2 Substrate Phosphorylation P-4E-BP1-(T37/46) (converted)
Method in brief: as §1

SMILES	IC50 (P-P70S6K (T389))	IC50 (P-Akt (S473))	IC50 (P-4E-BP1 (T37/46))
CO[C@H]1C[C@@H]2CC[C@@H](C)[C@@](O)(O2)C(=O)C(=O)N2CCCC[C@H]2C(=O)O[C@H]([C@H](C)C[C@@H]2CC[C@@H](OC(=O)NCc3cnc(N4CCN(C(=O)CCOCCN5CCN(c6ncc(C(=O)N7CCc8cc(Cn9nc(-c%10ccc%11oc(N)nc%11c%10)c%10c(N)ncnc%109)ccc8C7)cn6)CC5)CC4)nc3)[C@H](OC)C2)C[C@@H](O)[C@H](C)/C=C(\C)[C@@H](O)[C@@H](OC)C(=O)[C@H](C)C[C@H](C)/C=C/C=C/C=C/1C [Example 113]	< 1 nM	3.16 to 31.6 nM	< 3.16 nM
CO[C@H]1C[C@@H]2CC[C@@H](C)[C@@](O)(O2)C(=O)C(=O)N2CCCC[C@H]2C(=O)O[C@H]([C@H](C)C[C@@H]2CC[C@@H](OC(=O)NCc3cnc(N4CCN(C(=O)CCOCCN5CCN(c6ncc(C(=O)N7CCc8cc(Cn9nc(-c%10ccc%11oc(N)nc%11c%10)c%10c(N)ncnc%109)ccc8C7)cn6)CC5)CC4)nc3)[C@H](OC)C2)C[C@@H](OC)[C@H](C)/C=C(\C)[C@@H](O)[C@@H](OC)C(=O)[C@H](C)C[C@H](C)/C=C/C=C/C=C/1C [Example 114]	< 1 nM	> 1000 nM	< 3.16 nM
CO[C@H]1C[C@@H]2CC[C@@H](C)[C@@](O)(O2)C(=O)C(=O)N2CCCC[C@H]2C(=O)O[C@H]([C@H](C)C[C@@H]2CC[C@@H](OC(=O)NCc3cnc(N4CCN(C(=O)CCOCCN5CCN(C(=O)CCC(=O)NCCCCn6nc(-c7cnc8[nH]ccc8c7)c7c(N)ncnc76)CC5)CC4)nc3)[C@H](OC)C2)CC(=O)[C@H](C)/C=C(\C)[C@@H](O)[C@@H](OC)C(=O)[C@H](C)C[C@H](C)/C=C/C=C/C=C/1C [Example 116]	< 1 nM	> 1000 nM	< 3.16 nM
CO[C@H]1C[C@@H]2CC[C@@H](C)[C@@](O)(O2)C(=O)C(=O)N2CCCC[C@H]2C(=O)O[C@H]([C@H](C)C[C@@H]2CC[C@@H](OC(=O)N3CCc4nc(N5CCN(C(=O)CCOCCN6CCN(c7ncc(C(=O)N8CCc9cc(Cn%10nc(-c%11ccc%12oc(N)nc%12c%11)c%11c(N)ncnc%11%10)ccc9C8)cn7)CC6)CC5)ncc4C3)[C@H](OC)C2)C[C@@H](OC)[C@H](C)/C=C(\C)[C@@H](O)[C@@H](OC)C(=O)[C@H](C)C[C@H](C)/C=C/C=C/C=C/1C [Example 117]	< 1 nM	3.16 to 31.6 nM	< 3.16 nM
CO[C@H]1C[C@@H]2CC[C@@H](C)[C@@](O)(O2)C(=O)C(=O)N2CCCC[C@H]2C(=O)O[C@H]([C@H](C)C[C@@H]2CC[C@@H](OC(=O)NCc3cnc(N4CCN(C(=O)CCOCCN5CCN(c6ncc(C(=O)N7CCc8cc(Cn9nc(-c%10ccc%11oc(N)nc%11c%10)c%10c(N)ncnc%109)ccc8C7)cn6)CC5)CC4)nc3)[C@H](OC)C2)CC[C@H](C)/C=C(\C)[C@@H](O)[C@@H](OC)C(=O)[C@H](C)C[C@H](C)/C=C/C=C/C=C/1C [Example 118]	< 1 nM	3.16 to 31.6 nM	< 3.16 nM
CO[C@H]1C[C@@H]2CC[C@@H](C)[C@@](O)(O2)C(=O)C(=O)N2CCCC[C@H]2C(=O)O[C@H]([C@H](C)C[C@@H]2CC[C@@H](OC(=S)NCc3cnc(N4CCN(C(=O)CCOCCN5CCN(c6ncc(C(=O)N7CCc8cc(Cn9nc(-c%10ccc%11oc(N)nc%11c%10)c%10c(N)ncnc%109)ccc8C7)cn6)CC5)CC4)nc3)[C@H](OC)C2)CC(=O)[C@H](C)/C=C(\C)[C@@H](O)[C@@H](OC)C(=O)[C@H](C)C[C@H](C)/C=C/C=C/C=C/1C [Example 119]	< 1 nM	3.16 to 31.6 nM	< 3.16 nM
CO[C@H]1C[C@@H]2CC[C@@H](C)[C@@](O)(O2)C(=O)C(=O)N2CCCC[C@H]2C(=O)O[C@H]([C@H](C)C[C@@H]2CC[C@@H](OC(=S)NCc3cnc(N4CCN(C(=O)CCOCCN5CCN(c6ncc(C(=O)N7CCc8cc(Cn9nc(-c%10ccc%11oc(N)nc%11c%10)c%10c(N)ncnc%109)ccc8C7)cn6)CC5)CC4)nc3)[C@H](OC)C2)C[C@@H](OC)[C@H](C)/C=C(\C)[C@@H](O)[C@@H](OC)C(=O)[C@H](C)C[C@H](C)/C=C/C=C/C=C/1C [Example 121]	< 1 nM	> 1000 nM	< 3.16 nM
CO[C@H]1C[C@@H]2CC[C@@H](C)[C@@](O)(O2)C(=O)C(=O)N2CCCC[C@H]2C(=O)O[C@H]([C@H](C)C[C@@H]2CC[C@@H](OC(=O)NCc3cnc(N4CCN(C(=O)CCOCCN5CCN(c6ncc(C(=O)NCCS(=O)(=O)c7ccc(C(=O)N8CCOc9ccc(-c%10ccc(N)nc%10)cc9C8)c(C)c7F)cn6)CC5)CC4)nc3)[C@H](OC)C2)C[C@@H](O)[C@H](C)/C=C(\C)[C@@H](O)[C@@H](OC)C(=O)[C@H](C)C[C@H](C)/C=C/C=C/C=C/1C [Example 122]	< 1 nM	3.16 to 31.6 nM	< 3.16 nM
CO[C@H]1C[C@@H]2CC[C@@H](C)[C@@](O)(O2)C(=O)C(=O)N2CCCC[C@H]2C(=O)O[C@H]([C@H](C)C[C@@H]2CC[C@@H](OC(=O)NCc3cnc(N4CCN(C(=O)CCOCCN5CCN(c6ncc(C(=O)NCCS(=O)(=O)c7ccc(C(=O)N8CCOc9ccc(-c%10ccc(N)nc%10)cc9C8)c(C)c7F)cn6)CC5)CC4)nc3)[C@H](OC)C2)C[C@@H](OC)[C@H](C)/C=C(\C)[C@@H](O)[C@@H](OC)C(=O)[C@H](C)C[C@H](C)/C=C/C=C/C=C/1C [Example 123]	< 1 nM	31.6 to 1000 nM	< 3.16 nM
CO[C@H]1C[C@@H]2CC[C@@H](C)[C@@](O)(O2)C(=O)C(=O)N2CCCC[C@H]2C(=O)O[C@H]([C@H](C)C[C@@H]2CC[C@@H](OC(=O)NCc3cnc(N4CCN(C(=O)CCOCCN5CCN(c6ncc(C(=O)NCCS(=O)(=O)c7ccc(C(=O)N8CCOc9ccc(-c%10ccc(N)nc%10)cc9C8)c(C)c7)cn6)CC5)CC4)nc3)[C@H](OC)C2)CC(=O)[C@H](C)/C=C(\C)[C@@H](O)[C@@H](OC)C(=O)[C@H](C)C[C@H](C)/C=C/C=C/C=C/1C [Example 124]	< 1 nM	3.16 to 31.6 nM	< 3.16 nM
CO[C@H]1C[C@@H]2CC[C@@H](C)[C@@](O)(O2)C(=O)C(=O)N2CCCC[C@H]2C(=O)O[C@H]([C@H](C)C[C@@H]2CC[C@@H](OC(=O)NCc3cnc(N4CCN(C(=O)CCOCCN5CCN(c6ncc(C(=O)NCCS(=O)(=O)c7ccc(C(=O)N8CCOc9ccc(-c%10ccc(N)nc%10)cc9C8)c(C)c7)cn6)CC5)CC4)nc3)[C@H](OC)C2)C[C@@H](O)[C@H](C)/C=C(\C)[C@@H](O)[C@@H](OC)C(=O)[C@H](C)C[C@H](C)/C=C/C=C/C=C/1C [Example 125]	< 1 nM	3.16 to 31.6 nM	< 3.16 nM
CO[C@H]1C[C@@H]2CC[C@@H](C)[C@@](O)(O2)C(=O)C(=O)N2CCCC[C@H]2C(=O)O[C@H]([C@H](C)C[C@@H]2CC[C@@H](OC(=O)NCc3cnc(N4CCN(C(=O)CCOCCOCCN5CCN(c6ncc(C(=O)N7CCc8cc(Cn9nc(-c%10ccc%11[nH]ccc%11c%10)c%10c(N)ncnc%109)ccc8C7)cn6)CC5)CC4)nc3)[C@H](OC)C2)CC(=O)[C@H](C)/C=C(\C)[C@@H](O)[C@@H](OC)C(=O)[C@H](C)C[C@H](C)/C=C/C=C/C=C/1C [Example 126]	< 1 nM	> 1000 nM	3.16 to 31.6 nM
CO[C@H]1C[C@@H]2CC[C@@H](C)[C@@](O)(O2)C(=O)C(=O)N2CCCC[C@H]2C(=O)O[C@H]([C@H](C)C[C@@H]2CC[C@@H](OC(=O)N3CCc4nc(N5CCN(C(=O)CCOCCN6CCN(c7ncc(C(=O)N8CCc9cc(Cn%10nc(-c%11ccc%12[nH]ccc%12c%11)c%11c(N)ncnc%11%10)ccc9C8)cn7)CC6)CC5)ncc4C3)[C@H](OC)C2)CC(=O)[C@H](C)/C=C(\C)[C@@H](O)[C@@H](OC)C(=O)[C@H](C)C[C@H](C)/C=C/C=C/C=C/1C [Example 127]	< 1 nM	> 1000 nM	3.16 to 31.6 nM
CO[C@H]1C[C@@H]2CC[C@@H](C)[C@@](O)(O2)C(=O)C(=O)N2CCCC[C@H]2C(=O)O[C@H]([C@H](C)C[C@@H]2CC[C@@H](OC(=O)NCc3cnc(N4CCN(CCOCCN5CCN(c6ncc(C(=O)N7CCc8cc(Cn9nc(-c%10ccc%11oc(N)nc%11c%10)c%10c(N)ncnc%109)ccc8C7)cn6)CC5)CC4)nc3)[C@H](OC)C2)C[C@@H](OC)[C@H](C)/C=C(\C)[C@@H](O)[C@@H](OC)C(=O)[C@H](C)C[C@H](C)/C=C/C=C/C=C/1C [Example 128]	< 1 nM	31.6 to 1000 nM	3.16 to 31.6 nM
CO[C@H]1C[C@@H]2CC[C@@H](C)[C@@](O)(O2)C(=O)C(=O)N2CCCC[C@H]2C(=O)O[C@H]([C@H](C)C[C@@H]2CC[C@@H](OC(=O)N3CCc4nc(N5CCN(CCOCCN6CCN(c7ncc(C(=O)N8CCc9cc(Cn%10nc(-c%11ccc%12oc(N)nc%12c%11)c%11c(N)ncnc%11%10)ccc9C8)cn7)CC6)CC5)ncc4C3)[C@H](OC)C2)C[C@@H](OC)[C@H](C)/C=C(\C)[C@@H](O)[C@@H](OC)C(=O)[C@H](C)C[C@H](C)/C=C/C=C/C=C/1C [Example 129]	< 1 nM	> 1000 nM	< 3.16 nM
CO[C@H]1C[C@@H]2CC[C@@H](C)[C@@](O)(O2)C(=O)C(=O)N2CCCC[C@H]2C(=O)O[C@H]([C@H](C)C[C@@H]2CC[C@@H](OC(=O)NCc3cnc(N4CCN(CCOCCN5CCN(c6ncc(C(=O)N7CCc8cc(Cn9nc(-c%10ccc%11[nH]ccc%11c%10)c%10c(N)ncnc%109)ccc8C7)cn6)CC5)CC4)nc3)[C@H](OC)C2)CC(=O)[C@H](C)/C=C(\C)[C@@H](O)[C@@H](OC)C(=O)[C@H](C)C[C@H](C)/C=C/C=C/C=C/1C [Example 130]	< 1 nM	> 1000 nM	< 3.16 nM
